Consider 1 compound from publication PMC10535710, “Beauvericin suppresses the proliferation and pulmonary metastasis of osteosarcoma by selectively inhibiting TGFBR2 pathway” (International Journal of Biological Sciences, 2023).

SMILES strings stand for the structures.

The target in assay [1] is T1, TGFBR2 K252R (Homo sapiens, UniProt P37173, K252R).
T1 construct: TGFBR2 K252R overexpression plasmid transfected into OS cells
Description: DARTS (protection from pronase) in OS cells expressing the mutant. In kind it is cell-based.

The target in assay [2] is T2, TGFBR2 (Homo sapiens, UniProt P37173).
T2 construct: MST used recombinant human TGFBR2 ECD
T2 sequence (P37173 188-567 limits assumed): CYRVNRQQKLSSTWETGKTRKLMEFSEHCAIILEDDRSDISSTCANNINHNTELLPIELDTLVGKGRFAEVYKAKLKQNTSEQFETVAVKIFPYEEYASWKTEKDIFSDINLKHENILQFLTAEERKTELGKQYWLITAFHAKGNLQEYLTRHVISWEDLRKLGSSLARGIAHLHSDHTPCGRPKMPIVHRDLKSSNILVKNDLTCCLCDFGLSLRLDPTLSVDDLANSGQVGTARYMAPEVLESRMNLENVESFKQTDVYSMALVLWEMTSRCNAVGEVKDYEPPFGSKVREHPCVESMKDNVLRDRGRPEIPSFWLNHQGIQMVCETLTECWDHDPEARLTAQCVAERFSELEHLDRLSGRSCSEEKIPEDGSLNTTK
Description: TR-FRET LanthaScreen Eu Kinase Binding Assay (tracer […]; reported as kinase activity inhibition); supported by MST, DARTS on recombinant protein, CETSA. Background: Time-resolved FRET reads energy transfer from a long-lived donor to a nearby acceptor.

T1 sequence (P37173 23-567 K252R): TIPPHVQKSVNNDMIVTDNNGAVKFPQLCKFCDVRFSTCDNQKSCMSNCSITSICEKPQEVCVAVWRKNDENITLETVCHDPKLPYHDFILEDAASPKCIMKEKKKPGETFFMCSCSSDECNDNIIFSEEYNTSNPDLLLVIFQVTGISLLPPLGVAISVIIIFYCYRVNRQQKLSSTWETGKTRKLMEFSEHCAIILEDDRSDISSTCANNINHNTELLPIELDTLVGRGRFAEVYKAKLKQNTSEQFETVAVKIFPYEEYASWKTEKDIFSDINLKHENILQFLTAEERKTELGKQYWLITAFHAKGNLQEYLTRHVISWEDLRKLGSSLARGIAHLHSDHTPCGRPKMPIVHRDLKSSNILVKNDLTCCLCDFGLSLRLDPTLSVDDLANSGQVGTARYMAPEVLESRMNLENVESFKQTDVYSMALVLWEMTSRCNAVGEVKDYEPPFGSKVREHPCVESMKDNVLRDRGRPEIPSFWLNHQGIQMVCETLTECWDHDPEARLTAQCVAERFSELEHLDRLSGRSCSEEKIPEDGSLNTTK

As for `CC(C)[C@H]1OC(=O)[C@H](Cc2ccccc2)N(C)C(=O)[C@@H](C(C)C)OC(=O)[C@H](Cc2ccccc2)N(C)C(=O)[C@@H](C(C)C)OC(=O)[C@H](Cc2ccccc2)N(C)C1=O` [BEA, beauvericin], the “DARTS (protection from pronase) in OS cells expressing the mutant” value in assay [1] is reported as “BEA suppressed the pronase-induced degradation of TGFBR2^K252R (Figure S7A-B), indicating that BEA may bind to TGFBR2 at N332”. Further, the IC50 (usually the concentration that inhibits the measured activity by half) in assay [2] worked out at 1360 ± 210 nM.
